Assay results reported in patent US20240342186A1, “PYRIDINE DERIVATIVES WITH N-LINKED CYCLIC SUBSTITUENTS AS cGAS INHIBITORS” (Boehringer Ingelheim International GmbH, priority 2021, published 2024).
Like-named read-outs stand apart in the source and are kept apart here.

Columns and labels:
[1] = system: cellular cGAS activity in baculovirus-stimulated THP1-Dual cells (IRF dependent Lucia luciferase reporter); experiment: Human cGAS cell assay: inhibition of IFN induction in virus-stimulated THP1 cells (THP1(vir) IC50); format: cell-based; details: Homo sapiens, THP1-Dual
Procedure, shortened: (§1)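 THP1-Dual cells with IRF-dependent Lucia luciferase reporter, stimulated by empty baculovirus (dsDNA delivery activating cGAS) or, for the counter assay, directly by cGAMP. 5000 cells/well, 8 concentrations from 10 μM top, 1% DMSO, 18 h at 37 °C; luminescence read, IC50 by 4-parameter logistic fit versus unstimulated low control.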

[2] = system: cGAMP-stimulated THP1-Dual cells (pathway directly downstream of cGAS); experiment: cGAMP stimulated counter cell assay: inhibition of IFN induction in cGAMP-stimulated THP1 cells (THP1(cGAMP) IC50); format: cell-based, human; details: for IC50: Homo sapiens, THP1-Dual, read-out: THP1(cGAMP) IC50 (converted); for Ratio THP1(cGAMP) IC50 / THP1(vir) IC50: selectivity for cGAS inhibition
Procedure, shortened: as §1

cGAS = cGAS (Homo sapiens (Human), UniProt Q8N884); experiment: Human cGAS enzyme assay (hcGAS IC50, in vitro), cGAMP formation by RapidFire MS; format: biochemical;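 also: enzyme activated by 45 bp dsDNA with GTP and ATP (30 µM each), 60 min compound pre-incubation then 90 min reaction, cGAMP relative to cyclic-di-GMP internal standard, 8-point dilutions up to 10 µM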
[3] = system: cellular cGAS activity in dsDNA-stimulated human whole blood; experiment: Human whole blood assay (hWB IC50): IFNα2α production after dsDNA transfection; format: cell-based
Procedure, shortened: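 Citrated blood from healthy donors preincubated 60 min at room temperature with compound (top 10 µM, ~1:5 steps, 0.1% DMSO), then transfected with dsDNA/Fugene and incubated 22 h at 37 °C. Plasma IFNα2α measured by MSD immunoassay; IC50 from 4-parameter fit of % control (stimulated vs unstimulated).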

[4] = read-out: THP1(vir) IC50, virus-stimulated THP1 cells, IFN induction
[5] = cGAMP-stimulated THP1 cells, counter assay
[6] = biochemical (in vitro), human cGAS, 45 bp dsDNA, GTP/ATP
[7] = dsDNA-stimulated human whole blood, IFN induction
[8] = inhibition of IFN induction in virus-stimulated THP1 cells, read-out: THP1(vir) IC50
[9] = inhibition of IFN induction in cGAMP-stimulated THP1 cells
[10] = biochemical (in vitro) cGAS inhibition
[11] = inhibition of IFN induction in dsDNA-stimulated human whole blood

cGAS, sequence (Q8N884 whole entry): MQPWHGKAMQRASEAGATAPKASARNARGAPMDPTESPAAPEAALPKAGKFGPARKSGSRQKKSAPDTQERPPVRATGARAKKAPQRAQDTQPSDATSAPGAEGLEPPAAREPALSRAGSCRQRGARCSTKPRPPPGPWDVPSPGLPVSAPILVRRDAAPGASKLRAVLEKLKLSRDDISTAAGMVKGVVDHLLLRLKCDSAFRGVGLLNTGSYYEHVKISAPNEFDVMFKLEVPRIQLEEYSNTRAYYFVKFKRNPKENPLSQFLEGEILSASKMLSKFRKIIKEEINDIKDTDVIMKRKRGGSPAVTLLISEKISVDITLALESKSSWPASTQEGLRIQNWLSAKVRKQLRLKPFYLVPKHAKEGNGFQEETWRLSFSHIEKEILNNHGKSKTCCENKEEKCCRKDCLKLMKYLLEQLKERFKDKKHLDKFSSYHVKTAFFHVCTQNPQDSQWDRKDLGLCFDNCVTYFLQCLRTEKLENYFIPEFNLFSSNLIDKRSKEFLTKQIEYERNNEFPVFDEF

SMILES	IC50 [1, 8] [nM]	IC50 (cGAS; [10]) [nM]	IC50 [3, 11] [nM]	IC50 ([1]; virus-stimulated THP1 cells, IFN induction, read-out: THP1(vir) IC50) [nM]	IC50 [1, 4] [nM]	IC50 [2, 5] [nM]	IC50 (cGAS; [6]) [nM]	IC50 [3, 7] [nM]	IC50 [2, 9] [nM]	Ratio THP1(cGAMP) IC50 / THP1(vir) IC50 [2]
C#Cc1cnc(O[C@H]2C[C@@H](C(=O)OC)N(c3nc(C(F)(F)F)nc4c3oc3ccccc34)C2)c(N2CCOC3(COC3)[C@@H]2C)c1 [Example P03]	–	–	–	–	188	22800	9620	1090	–	–
C[C@@H]1N(c2cc(-c3cccc(N(C)C)c3)cnc2O[C@H]2C[C@@H](C(=O)O)N(c3nc(C(F)(F)F)nc4c3oc3ccccc34)C2)CCOC12COC2 [Example 3.17]	11	20	43	–	–	–	–	–	16800	1542
C[C@@H]1N(c2cc(F)cnc2O[C@H]2C[C@@H](C(=O)O)N(c3nc(C(F)(F)F)nc4c3oc3ccccc34)C2)CCOC12COC2 [Example 1.34]	19	3	51	–	–	–	–	–	> 10000	514
COC(=O)[C@@H]1C[C@H](Oc2ncccc2N2CCOC3(COC3)[C@@H]2C)CN1c1nc(C(F)F)nc2c1oc1ccccc12 [Example P01, Methyl (2S,4S)-4-({3-[(9S)-9-methyl-2,5-dioxa-8-azaspiro[3.5]nonan-8-yl]pyridin-2-yl}oxy)-1-[4-(difluoromethyl)-8-oxa-3,5-diazatricyclo[7.4.0.0^2,7]trideca-1(9),2(7),3,5,10,12-hexaen-6-yl]pyrrolidine-2-carboxylate]	–	–	–	–	358	26100	> 9960	1310	–	–
C#Cc1cnc(O[C@H]2C[C@@H](C(=O)O)N(c3nc(C(F)(F)F)nc4c3oc3ccccc34)C2)c(N2CCCC3(COC3)[C@@H]2C)c1 [Example 1.22]	21	5	29	–	–	–	–	–	7640	355
C#Cc1cnc(O[C@H]2C[C@@H](C(=O)O)N(c3nc(C)nc4c3oc3cc(F)ccc34)C2)c(N2CCOC3(COC3)[C@@H]2C)c1 [Example 2.08]	< 5	3	6	–	–	–	–	–	18800	3490
C[C@@H]1N(c2cc(Cl)cnc2O[C@H]2C[C@@H](C(=O)O)N(c3nc(C(F)(F)F)nc4c3oc3ccccc34)C2)CCOC12COC2 [Example 1.13]	40	4	102	–	–	–	–	–	16400	413
Cc1cnc(-c2cnc(O[C@H]3C[C@@H](C(=O)O)N(c4nc(C(F)(F)F)nc5c4oc4ccccc45)C3)c(N3CCOC4(COC4)[C@@H]3C)c2)cn1 [Example 7.04]	2	12	22	–	–	–	–	–	> 10000	4084
C[C@@H]1N(c2cc(Cl)cnc2O[C@H]2C[C@@H](C(=O)O)N(c3nc(C(F)F)nc4c3oc3ccccc34)C2)CCOC12COC2 [Example 1.09]	19	2	19	–	–	–	–	–	22100	1169
C[C@@H]1N(c2cc(-c3cnn(C(F)F)c3)cnc2O[C@H]2C[C@@H](C(=O)O)N(c3nc(C(F)(F)F)nc4c3oc3ccccc34)C2)CCOC12COC2 [Example 3.31]	3	11	28	–	–	–	–	–	10900	4120
CC#Cc1cnc(O[C@H]2C[C@@H](C(=O)O)N(c3nc(C(F)(F)F)nc4c3oc3ccccc34)C2)c(N2CCOC3(CC3)[C@@H]2C)c1 [Example 6.03]	5	7	95	–	–	–	–	–	10900	2273
COc1cc(-c2cnc(O[C@H]3C[C@@H](C(=O)O)N(c4nc(C(F)(F)F)nc5c4oc4ccccc45)C3)c(N3CCOC[C@@H]3C)c2)ccn1 [Example 3.05]	523	14	1830	–	–	–	–	–	6710	13
CSc1cc(-c2cnc(O[C@H]3C[C@@H](C(=O)O)N(c4nc(C(F)F)nc5c4oc4ccccc45)C3)c(N3CCOC4(COC4)[C@@H]3C)c2)ccn1 [Example 3.16, (2S,4S)-1-[4-(difluoromethyl)-8-oxa-3,5-diazatricyclo-[7.4.0.0^2.7]trideca-1(9),2(7),3,5,10,12-hexaen-6-yl]-4-({5-[(9S)-9-methyl-2,5-dioxa-8-azaspiro[3.5]nonan-8-yl]-2′-(methylsulfanyl)-[3,4′-bipyridin]-6-yl}oxy)-pyrrolidine-2-carboxylic acid]	19	15	38	–	–	–	–	–	11800	629

Further lines, with some results ahead:

IC50 [1, 8] [nM]	IC50 (cGAS; [10]) [nM]	IC50 [3, 11] [nM]	IC50 ([1]; virus-stimulated THP1 cells, IFN induction, read-out: THP1(vir) IC50) [nM]	SMILES	IC50 [1, 4] [nM]	IC50 [2, 5] [nM]	IC50 (cGAS; [6]) [nM]	IC50 [3, 7] [nM]	IC50 [2, 9] [nM]	Ratio THP1(cGAMP) IC50 / THP1(vir) IC50 [2]
858	8	506	–	C#Cc1cnc(O[C@H]2C[C@@H](C(=O)O)N(c3nc(C(F)F)nc4c3oc3ccccc34)C2)c(N2CCOCC2)c1 [Example 2.01, (2S,4S)-1-[4-(Difluoromethyl)-8-oxa-3,5-diazatricyclo[7.4.0.0^2,7]trideca-1(13),2,4,6,9,11-hexzen-6-yl]-4-{[5-ethynyl-3-(morpholin-4-yl)pyridin-2yl]oxy}-pyrrolidine-2-carboxylic acid]	–	–	–	–	> 16600	>19
591	66	1570	–	C[C@@H]1N(c2cc(-c3ccc(OC4CCOCC4)nc3)cnc2O[C@H]2C[C@@H](C(=O)O)N(c3nc(C(F)(F)F)nc4c3oc3ccccc34)C2)CCOC12COC2 [Example 3.29]	–	–	–	–	6540	11
10	8	70	–	C[C@@H]1N(c2cc(-c3ccc(C#N)nc3)cnc2O[C@H]2C[C@@H](C(=O)O)N(c3nc(C(F)(F)F)nc4c3oc3ccccc34)C2)CCOC12COC2 [Example 3.23]	–	–	–	–	10000	1029
48	11	1370	–	C[C@@H]1N(c2cc(-c3cncc(Cl)c3)cnc2O[C@H]2C[C@@H](C(=O)O)N(c3nc(C(F)(F)F)nc4c3oc3ccccc34)C2)CCOC12COC2 [Example 3.26]	–	–	–	–	9240	193
525	9	1990	–	C[C@H]1COCCN1c1cc(-c2cnn(C)c2)cnc1O[C@H]1C[C@@H](C(=O)O)N(c2nc(C(F)(F)F)nc3c2oc2ccccc23)C1 [Example 3.06]	–	–	–	–	21400	41
699	4	667	–	C#Cc1cnc(O[C@H]2C[C@@H](C(=O)O)N(c3nc(C(F)F)nc4c3oc3ccccc34)C2)c(N2CCCC[C@@H]2C)c1 [Example 1.19]	–	–	–	–	> 16600	>24
11	5	21	–	C[C@@H]1N(c2cc(-c3cn(C)nn3)cnc2O[C@H]2C[C@@H](C(=O)O)N(c3nc(C(F)(F)F)nc4c3oc3ccccc34)C2)CCOC12COC2 [Example 8.01, (2S,4S)-4-{[5-(1-methyl-1H-1,2,3-triazol-4-yl)-3-[(95)-9-methyl-2,5-dioxa-8-azaspiro[3.5]nonan-8-yl]pyridin-2-yl]oxy}-1-[4-(trifluoromethyl)-8-oxa-3,5-diazatricyclo[7.4.0.0^2,7]trideca-1(9),2(7),3,5,10,12-hexaen-6-yl]pyrrolidine-2-carboxylic acid]	–	–	–	–	14900	1366
–	–	–	67	COC(=O)[C@@H]1C[C@H](Oc2ncc(-c3cccnc3OC)cc2N2CCOC3(COC3)[C@@H]2C)CN1c1nc(C(F)(F)F)nc2c1oc1ccccc12 [Example P04]	–	> 16600	> 9950	2750	–	–
2	9	17	–	COc1cc(-c2cnc(O[C@H]3C[C@@H](C(=O)O)N(c4nc(C(F)F)nc5c4oc4ccccc45)C3)c(N3CCOC4(COC4)[C@@H]3C)c2)c(F)cn1 [Example 3.32]	–	–	–	–	12900	5194
752	7	1030	–	C#Cc1cnc(O[C@H]2C[C@@H](C(=O)O)N(c3nc(C(F)(F)F)nc4c3oc3ccccc34)C2)c(N2CCOCC2)c1 [Example 2.02]	–	–	–	–	> 16600	>22
899	7	2120	–	C[C@H]1COCCN1c1cc(-c2ccncc2F)cnc1O[C@H]1C[C@@H](C(=O)O)N(c2nc(C(F)(F)F)nc3c2oc2ccccc23)C1 [Example 3.03]	–	–	–	–	12800	14
326	21	1860	–	Cc1noc(C)c1-c1cnc(O[C@H]2C[C@@H](C(=O)O)N(c3nc(C(F)(F)F)nc4c3oc3ccccc34)C2)c(N2CCOC3(COC3)[C@@H]2C)c1 [Example 3.27]	–	–	–	–	12500	38
